This note sets out measurements from patent publication US20090292012A1, “Therapeutic Agent” (priority 2005, published 2009).

Usually inhibition stands for the relative decrease from the control value, in per cent. Low values mean little suppression, high ones strong suppression.

One series deals with ACAT. The series can be described thus: Determination of inhibitory activity for ACAT, rat liver microsome, [3H]oleoyl-CoA. As to conditions: relative to 10 μM FR179254 set as 100%. It is filed as biochemical. Here is the method: Four of Sprague-Dawley rats were bred for one week and thereafter sacrificed, and the livers were immediately excised. The excised livers were shortly washed with cold brine, and thereafter immersed (25 mL/a rat) into sucrose buffer (0.3 M sucrose, 50 mM Tris-HCl, 1 mM EDTA, 50 mM NaCl, pH 7.4). The resulting livers were homogenized, and the procedures of centrifuging at 10,000×g for 30 minutes and removing the formed precipitates were repeated twice for the homogenized livers. The resulting supernatant was centrifuged at 105,000×g for 70 minutes, and the precipitates were collected and suspended in an appropriate amount of 100 mM phosphate buffer (pH 7.4). The suspension was again suspended in the phosphate buffer so as to have a protein concentration of 10 mg/ml, and EDTA was added thereto so as to have a final concentration of 1 mM. Thereafter, the suspension was subjected to frozen storage at −80° C. until being used.
The enzymatic activity of ACAT was determined according to the partially modified method of Lee et al. (Planta Med., 2004, 70, 678-679).
In a 1.5 mL Eppendorf tube, 1 μL of a dimethyl sulfoxide solution of each subject sample was added to a 92 μL of a reaction aqueous solution (0.05 M potassium phosphate, 1 mM dithiothreitol, 9 mg/mL fatty acid-free bovine serum albumin, 200 μg/mL cholesterol, pH 7.4) containing 1.5 μL of the rat liver microsome prepared in item (1) of Example 2 so as to have a final concentration described in Table 2, and the mixture was incubated at 37° C. for 30 minutes. Here, the purified ethanol extract fraction from a leaf of Peucedanum japonicum -Fr. […] The radioactivity was determined with a liquid scintillation counter LS6500 (manufactured by Beckmann) using 150 μL of the resulting supernatant with Ultima Gold (manufactured by PerkinElmer Life Sciences Inc., 6013329) as a scintillation cocktail. […] The inhibitory activity for ACAT (%) of each of the subject samples was calculated in accordance with the following formula setting an inhibitory ratio upon addition of 10 μM FR179254 which is a positive control as 100%. […]
Background: Liver microsomes are vesicles of endoplasmic reticulum, rich in cytochrome P450 enzymes.

The subject of another series is RAW 264.7 cells. As to the kind of experiment: Determination of anti-foaming in macrophage (cholesterol ester accumulation with Ac-LDL). Particulars: Ac-LDL 20 μg/mL, 24 hours. It is filed as cell-based. The procedure: Macrophage introduces a modified LDL (such as acetyl LDL (Ac-LDL) into a cell to synthesize cholesterol ester, thereby foaming. An anti-foaming activity for the macrophage with each subject sample was determined.
RAW 264.7 cells (ATCC TIB 71) were suspended in Dulbecco's modified Eagle's medium (manufactured by Sigma, D5796) containing 10% fetal bovine serum (manufactured by Cambrex Corporation), so as to have a concentration of 4×10^5 cells/ml, and the suspension was put to each well of a 24-well microtiter plate in an amount of 1 ml per well. The cells were cultured at 37° C. overnight in the presence of 5% carbon dioxide gas. Next, the medium was exchanged with UltraCHO media (manufactured by Cambrex Corporation, B2724) and 2 μL of the dimethyl sulfoxide solution of each of the subject samples prepared in the above-mentioned Preparation Examples was added to each well so as to have a concentration shown in the following Table 1. Here, the purified ethanol extract fraction from a leaf of Peucedanum japonicum -Fr. 2-2 was used for 3′-acetoxy-4′-senecioyloxy-3′,4′-dihydroseselin in Table 1. Further, Ac-LDL (manufactured by Biomedical Technology, Inc., BT-906) at a final concentration of 20 μg/mL was added to each well, and each mixture was cultured for 24 hours. Here, there were set a group without addition of Ac-LDL and a group with addition of dimethyl sulfoxide as controls.
The total amount of cholesterol in a cell and the amount of free cholesterol were determined to calculate the amount of cholesterol ester as an index for anti-foaming for macrophage.
After the termination of the culture, the medium was removed, and the cells were washed with a 0.3% (w/v) BSA (manufactured by Sigma, A-8022) containing phosphate buffered saline and further washed with a phosphate buffered saline. The amount 0.5 mL of a solvent of hexane:isopropanol=3:2 was added to the cells. The mixture was allowed to stand at room temperature for 30 minutes, and thereafter the supernatant was collected. The procedures were repeated again, and a total of 1 mL of the supernatant was concentrated to dryness. The precipitate was dissolved in 30 μL of isopropanol, and thereafter the total amount of cholesterol contained in 10 μL of the resulting solution was determined with Cholesterol E-Test (manufactured by Wako Pure Chemical Industries, Ltd., 439-17501) and the amount of free cholesterol was determined with Free Cholesterol E-Test (manufactured by Wako Pure Chemical Industries, Ltd., 435-35801). All of the determinations were carried out twice. The amount of biosynthesis of cholesterol ester was determined by subtracting the amount of free cholesterol from the total amount of cholesterol. The anti-foaming activity was calculated in accordance with the following formula. […]

The subject of a further series is mouse. The series can be described thus: Single oral dose toxicity in mouse. Format: in vivo. As to conditions: 1 g/kg weight. The procedure: No toxicity is found even when the above-mentioned effective ingredient used in the present invention is administered in an effective dose for the exhibition of its action in a living body.

Take `CC(=O)OC1C(OC(=O)C=C(C)C)c2c(ccc3ccc(=O)oc23)OC1(C)C` (centres unmarked) [3′-acetoxy-4′-senecioyloxy-3′,4′-dihydroseselin]: the entries for the “Inhibitory Activity for ACAT (%)” value in the series on ACAT (final concentration 25 μM), in the series with ACAT (final concentration 50 μM) and in the series with ACAT (final concentration 100 μM) were 40%, 65% and 87%, respectively. The compound further came in with an inhibition at 20 µM in the series with RAW 264.7 cells (Mus musculus, RAW264.7, final concentration 20 μM) of 19%. This compound returned an inhibition at 40 µM in the series on RAW 264.7 cells (Mus musculus, RAW264.7, final concentration 40 μM) of 98%. For the same compound, the “Anti-Foaming Activity (%)” value in the series on RAW 264.7 cells (final concentration 0.1 %) is 34%; in the series on RAW 264.7 cells (final concentration 0.2 %) it was 72%. Besides, in the series on mouse, the “deaths after oral administration” value is recorded as “no cases of deaths are found”.
